molecular target: PI3K delta (Homo sapiens, UniProt O00329); assay: Luciferase-coupled chemiluminescence kinase assay (ATP consumption, KinaseGlo); assay type: biochemical
How it was run: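 ATP consumption measured by KinaseGlo luciferase chemiluminescence after a 2 h reaction at ambient temperature, with ATP at or below the kinase KM. Ten inhibitor concentrations per curve; IC50 from four-parameter nonlinear regression.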

Sequence of PI3K delta (O00329 whole entry): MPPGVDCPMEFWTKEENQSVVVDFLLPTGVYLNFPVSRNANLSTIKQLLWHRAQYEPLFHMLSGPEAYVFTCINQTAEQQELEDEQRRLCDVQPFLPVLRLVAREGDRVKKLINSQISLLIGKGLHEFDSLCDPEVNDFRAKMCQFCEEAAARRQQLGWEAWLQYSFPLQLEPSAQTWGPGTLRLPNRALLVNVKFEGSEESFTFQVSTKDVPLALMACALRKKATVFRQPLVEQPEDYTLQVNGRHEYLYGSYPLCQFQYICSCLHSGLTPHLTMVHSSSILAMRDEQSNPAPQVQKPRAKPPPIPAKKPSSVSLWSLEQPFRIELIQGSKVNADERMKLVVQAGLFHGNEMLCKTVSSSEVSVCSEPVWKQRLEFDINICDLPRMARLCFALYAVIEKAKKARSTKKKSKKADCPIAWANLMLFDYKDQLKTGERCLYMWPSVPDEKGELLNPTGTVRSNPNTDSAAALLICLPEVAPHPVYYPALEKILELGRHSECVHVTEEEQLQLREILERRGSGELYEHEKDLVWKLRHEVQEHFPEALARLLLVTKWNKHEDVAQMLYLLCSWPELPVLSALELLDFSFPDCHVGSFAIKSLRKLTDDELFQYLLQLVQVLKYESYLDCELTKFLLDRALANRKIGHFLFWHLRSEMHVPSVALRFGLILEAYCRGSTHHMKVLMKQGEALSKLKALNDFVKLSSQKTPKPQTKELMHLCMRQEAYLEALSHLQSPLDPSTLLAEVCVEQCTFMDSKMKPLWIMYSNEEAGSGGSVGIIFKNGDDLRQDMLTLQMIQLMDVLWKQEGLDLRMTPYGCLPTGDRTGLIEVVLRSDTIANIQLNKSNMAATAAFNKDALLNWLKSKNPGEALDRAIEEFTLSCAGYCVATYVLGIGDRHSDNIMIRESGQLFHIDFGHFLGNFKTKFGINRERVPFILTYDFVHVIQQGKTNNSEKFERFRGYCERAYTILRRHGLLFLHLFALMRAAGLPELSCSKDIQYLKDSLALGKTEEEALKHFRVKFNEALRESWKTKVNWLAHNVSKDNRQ
Sequence of PI3K delta (P27986 whole entry partner): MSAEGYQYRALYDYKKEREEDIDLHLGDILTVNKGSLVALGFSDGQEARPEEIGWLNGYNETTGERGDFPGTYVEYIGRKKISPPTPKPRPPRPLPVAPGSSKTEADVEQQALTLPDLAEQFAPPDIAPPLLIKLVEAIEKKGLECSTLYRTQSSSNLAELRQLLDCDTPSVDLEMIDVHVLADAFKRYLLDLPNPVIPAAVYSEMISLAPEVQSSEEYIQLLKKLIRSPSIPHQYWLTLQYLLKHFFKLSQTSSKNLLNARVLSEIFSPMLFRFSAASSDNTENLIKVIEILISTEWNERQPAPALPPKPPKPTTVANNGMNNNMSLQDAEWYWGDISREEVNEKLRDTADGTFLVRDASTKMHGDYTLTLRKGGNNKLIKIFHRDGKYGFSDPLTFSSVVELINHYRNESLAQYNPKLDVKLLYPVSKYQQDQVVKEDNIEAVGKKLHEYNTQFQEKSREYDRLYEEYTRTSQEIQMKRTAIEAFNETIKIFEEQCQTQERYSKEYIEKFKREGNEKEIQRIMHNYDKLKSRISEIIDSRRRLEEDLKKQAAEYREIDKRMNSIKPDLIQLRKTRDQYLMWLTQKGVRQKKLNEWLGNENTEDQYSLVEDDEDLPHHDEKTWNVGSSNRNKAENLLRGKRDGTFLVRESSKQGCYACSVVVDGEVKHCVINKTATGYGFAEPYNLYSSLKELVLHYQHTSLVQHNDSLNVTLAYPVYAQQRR

Q: Which IC50 does the source give for `CCn1c(C(=O)NCC2CC2)nc2c(N3CCC(n4c(=O)[nH]c5ncccc54)CC3)ncnc21` [Compound 270, N-(cyclopropylmethyl)-9-ethyl-6-[4-(2-oxo-2,3-dihydro-1H-imidazo[4,5-b]pyridin-1-yl)piperidin-1-yl]-9H-purine-8-carboxamide] here?
A: < 50 nM

Q: How did the IC50 turn out when `COC(=O)C1(c2ccccc2)CCN(c2ncnc3c2nc(-c2cnn(C)c2)n3C)CC1` [Compound 274, methyl 1-[9-methyl-8-(1-methyl-1H-pyrazol-4-yl)-9H-purin-6-yl]-4-phenylpiperidine-4-carboxylate] was run?
A: 500 to 1500 nM

Q: With `C=C(C)c1cn(-c2nc3c(N4CCC(n5c(=O)[nH]c6ccccc65)CC4)ncnc3n2C)cn1` [Compound 167, 1-(1-{9-methyl-8-[4-(1-methylethenyl)-1H-imidazol-1-yl]-9H-purin-6-yl}piperidin-4-yl)-1,3-dihydro-2H-benzimidazol-2-one] as the compound, how does the IC50 read?
A: < 50 nM

Q: `CC(=O)c1nc2c(N3CCC(n4c(=O)[nH]c5ccccc54)CC3)ncnc2n1C` [Compound 95, 1-[1-(8-Acetyl-9-methyl-9H-purin-6-yl)piperidin-4-yl]-1,3-dihydro-2H-benzimidazol-2-one] was tested. Which IC50 did it give?
A: 250 to 500 nM

Q: How did the IC50 turn out when `CCn1c(-c2cccnc2)nc2c(N3CCC4(CC3)C(=O)Nc3ccccc34)ncnc21` [Compound 291, 1′-(9-ethyl-8-pyridin-3-yl-9H-purin-6-yl)spiro[indole-3,4′-piperidin]-2(1H)-one] was run?
A: < 50 nM

Q: How did the IC50 turn out when `CCn1c(C(=O)NCC(C)(C)C)nc2c(N3CCC4(CC3)C(=O)Nc3ccccc34)ncnc21` [Compound 217, N-(2,2-dimethylpropyl)-9-ethyl-6-(2-oxo-1,2-dihydro-1′H-spiro[indole-3,4′-piperidin]-1′-yl)-9H-purine-8-carboxamide] was run?
A: < 50 nM

Q: With `Cn1c(-c2cccnn2)nc2c(N3CCC(n4c(=O)[nH]c5ccccc54)CC3)ncnc21` [Compound 297, 1-[1-(9-methyl-8-pyridazin-3-yl-9H-purin-6-yl)piperidin-4-yl]-1,3-dihydro-2H-benzimidazol-2-one] as the compound, how does the IC50 read?
A: 50 to 250 nM

Q: Which IC50 does the source give for `Cn1cc(-c2nc3c(N4CCN(c5cccc(OCC(=O)N6CCCCC6)c5)CC4)ncnc3n2C)cn1` [Compound 357, 9-methyl-8-(1-methyl-1H-pyrazol-4-yl)-6-(4-{3-[(2-oxo-2-piperidin-1-ylethyl)oxy]phenyl}piperazin-1-yl)-9H-purine] here?
A: 500 to 1500 nM

Q: Which IC50 does the source give for `CCn1c(C(=O)NCCC(C)C)nc2c(N3CCC(n4c(=O)[nH]c5ccccc54)CC3)ncnc21` [Compound 198, 9-ethyl-N-(3-methylbutyl)-6-[4-(2-oxo-2,3-dihydro-1H-benzimidazol-1-yl)piperidin-1-yl]-9H-purine-8-carboxamide] here?
A: 50 to 250 nM

Q: For `Cn1c(C(=O)NCC2CC2)nc2c(N3CCC4(CC3)OC(=O)c3ccccc34)ncnc21` [Compound 138, N-(cyclopropylmethyl)-9-methyl-6-(3-oxo-1′H,3H-spiro[2-benzofuran-1,4′-piperidin]-1′-yl)-9H-purine-8-carboxamide], which IC50 is on record?
A: 500 to 1500 nM

Q: With `Cn1c(C(=O)NCC2CC2)nc2c(N3CCC4(CC3)C(=O)NCC4c3ccccc3)ncnc21` (stereo not shown) [Compound 99, N-(cyclopropylmethyl)-9-methyl-6-(1-oxo-4-phenyl-2,8-diazaspiro[4.5]dec-8-yl)-9H-purine-8-carboxamide] as the compound, how does the IC50 read?
A: 500 to 1500 nM

Q: `CC(C)n1cc(-c2nc3c(N4CCC(n5c(=O)[nH]c6ccccc65)CC4)ncnc3n2C)cn1` [Compound 152, 1-(1-{9-methyl-8-[1-(1-methylethyl)-1H-pyrazol-4-yl]-9H-purin-6-yl}piperidin-4-yl)-1,3-dihydro-2H-benzimidazol-2-one] was tested. Which IC50 did it give?
A: < 50 nM

Q: For `CN(C)C1CN(C(=O)c2nc3c(N4CCC5(CC4)C(=O)NCC5c4ccccc4)ncnc3n2C)C1` (stereo not shown) [Compound 10], which IC50 is on record?
A: 500 to 1500 nM

Q: For `COc1ccccc1CNC(=O)c1nc2c(N3CCC(n4c(=O)[nH]c5ccccc54)CC3)ncnc2n1C` [Compound 56, 9-methyl-N-{[2-(methyloxy)phenyl]methyl}-6-[4-(2-oxo-2,3-dihydro-1H-benzimidazol-1-yl)piperidin-1-yl]-9H-purine-8-carboxamide], which IC50 is on record?
A: 250 to 500 nM

Q: With `Cn1c(C(=O)NC(C)(C)C)nc2c(N3CCC4(CC3)C(=O)Nc3ccccc34)ncnc21` [Compound 75, N-(1,1-dimethylethyl)-9-methyl-6-(2-oxo-1,2-dihydro-1′H-spiro[indole-3,4′-piperidin]-1′-yl)-9H-purine-8-carboxamide] as the compound, how does the IC50 read?
A: 50 to 250 nM

Q: `Cn1c(C(=O)NCc2cccc(F)c2)nc2c(N3CCC4(CC3)C(=O)Nc3ccccc34)ncnc21` [Compound 28, N-[(3-fluorophenyl)methyl]-9-methyl-6-(2-oxo-1,2-dihydro-1′H-spiro[indole-3,4′-piperidin]-1′-yl)-9H-purine-8-carboxamide] was tested. Which IC50 did it give?
A: 250 to 500 nM

Q: How did the IC50 turn out when `CCn1c(-c2cnc(OC)nc2)nc2c(N3CCC(n4c(=O)[nH]c5ccccc54)CC3)ncnc21` [Compound 306, 1-(1-{9-ethyl-8-[2-(methyloxy)pyrimidin-5-yl]-9H-purin-6-yl}piperidin-4-yl)-1,3-dihydro-2H-benzimidazol-2-one] was run?
A: < 50 nM

Q: For `Cn1c(C(=O)NCC2CC2)nc2c(N3CCC(n4c(=O)[nH]c5ncccc54)CC3)ncnc21` [Compound 240, N-(cyclopropylmethyl)-9-methyl-6-[4-(2-oxo-2,3-dihydro-1H-imidazo[4,5-b]pyridin-1-yl)piperidin-1-yl]-9H-purine-8-carboxamide], which IC50 is on record?
A: 50 to 250 nM

Q: How did the IC50 turn out when `Cn1c(-c2ccnnc2)nc2c(N3CCC4(CC3)C(=O)Nc3ccccc34)ncnc21` [Compound 313, 1′-(9-methyl-8-pyridazin-4-yl-9H-purin-6-yl)spiro[indole-3,4′-piperidin]-2(1H)-one] was run?
A: 50 to 250 nM

Q: Which IC50 does the source give for `Cn1c(CNC(=O)OC(C)(C)C)nc2c(N3CCC(n4c(=O)[nH]c5ccccc54)CC3)ncnc21` [Compound 339, 1,1-dimethylethyl ({9-methyl-6-[4-(2-oxo-2,3-dihydro-1H-benzimidazol-1-yl)piperidin-1-yl]-9H-purin-8-yl}methyl)carbamate] here?
A: 500 to 1500 nM

Q: `Cn1cc(-c2nc3c(N4CCN(S(=O)(=O)c5ccc(F)cc5F)CC4)ncnc3n2C)cn1` [Compound 383, 6-{4-[(2,4-difluorophenyl)sulfonyl]piperazin-1-yl)-9-methyl-8-(1-methyl-1H-pyrazol-4-yl)-9H-purine] was tested. Which IC50 did it give?
A: 500 to 1500 nM

Q: How did the IC50 turn out when `CC(C)CCNC(=O)c1nc2c(N3CCC4(CC3)C(=O)Nc3ccccc34)ncnc2n1C` [Compound 40, 9-methyl-N-(3-methylbutyl)-6-(2-oxo-1,2-dihydro-1′H-spiro[indole-3,4′-piperidin]-1′-yl)-9H-purine-8-carboxamide] was run?
A: 50 to 250 nM

Q: Which IC50 does the source give for `CCCCCCNC(=O)c1nc2c(N3CCC(n4c(=O)[nH]c5ccccc54)CC3)ncnc2n1C` [Compound 71, N-hexyl-9-methyl-6-[4-(2-oxo-2,3-dihydro-1H-benzimidazol-1-yl)piperidin-1-yl]-9H-purine-8-carboxamide] here?
A: 250 to 500 nM

Q: With `Cn1c(-c2ccc(Cl)nc2)nc2c(N3CCC(n4c(=O)[nH]c5ccccc54)CC3)ncnc21` [Compound 283, 1-{1-[8-(6-chloropyridin-3-yl)-9-methyl-9H-purin-6-yl]piperidin-4-yl}-1,3-dihydro-2H-benzimidazol-2-one] as the compound, how does the IC50 read?
A: < 50 nM

Q: `Cn1c(C(=O)NC2CC2)nc2c(N3CCC4(CC3)C(=O)Nc3ccccc34)ncnc21` [Compound 14, N-cyclopropyl-9-methyl-6-(2-oxo-1,2-dihydro-1′H-spiro[indole-3,4′-piperidin]-1′-yl)-9H-purine-8-carboxamide] was tested. Which IC50 did it give?
A: 50 to 250 nM

Q: Which IC50 does the source give for `CCn1c(C(=O)N2CCC(F)(F)C2)nc2c(N3CCC(n4c(=O)[nH]c5ccccc54)CC3)ncnc21` [Compound 191, 1-(1-{8-[(3,3-difluoropyrrolidin-1-yl)carbonyl]-9-ethyl-9H-purin-6-yl}piperidin-4-yl)-1,3-dihydro-2H-benzimidazol-2-one] here?
A: < 50 nM

Q: Which IC50 does the source give for `CCNC(=O)c1nc2c(N3CCC(n4c(=O)[nH]c5ccccc54)CC3)ncnc2n1C` [Compound 62, N-ethyl-9-methyl-6-[4-(2-oxo-2,3-dihydro-1H-benzimidazol-1-yl)piperidin-1-yl]-9H-purine-8-carboxamide] here?
A: 50 to 250 nM

Q: For `Cc1cccc(Cl)c1S(=O)(=O)N1CCN(c2ncnc3c2nc(-c2cnn(C)c2)n3C)CC1` [Compound 386, 6-{4-[(2-chloro-6-methylphenyl)sulfonyl]piperazin-1-yl)-9-methyl-8-(1-methyl-1H-pyrazol-4-yl)-9H-purine], which IC50 is on record?
A: 250 to 500 nM

Q: Which IC50 does the source give for `CCn1c(-c2cnn(C)c2)nc2c(N3CCC4(CC3)C(=O)Nc3ccccc34)ncnc21` [Compound 245, 1′-[9-ethyl-8-(1-methyl-1H-pyrazol-4-yl)-9H-purin-6-yl]spiro[indole-3,4′-piperidin]-2(1H)-one] here?
A: < 50 nM

Q: How did the IC50 turn out when `Cc1nnc(-c2nc3c(N4CCC(n5c(=O)[nH]c6ccccc65)CC4)ncnc3n2C)o1` [Compound 102, 1-{1-[9-methyl-8-(5-methyl-1,3,4-oxadiazol-2-yl)-9H-purin-6-yl]piperidin-4-yl}-1,3-dihydro-2H-benzimidazol-2-one] was run?
A: 50 to 250 nM

Q: How did the IC50 turn out when `CCn1ncc(-c2nc3c(N4CCC(n5c(=O)[nH]c6c(F)cccc65)CC4)ncnc3n2C)c1C` [Compound 345, 1-{1-[8-(1-ethyl-5-methyl-1H-pyrazol-4-yl)-9-methyl-9H-purin-6-yl]piperidin-4-yl}-4-fluoro-1,3-dihydro-2H-benzimidazol-2-one] was run?
A: < 50 nM

Q: `Cc1c(-c2nc3c(N4CCC(n5c(=O)[nH]c6ccccc65)CC4)ncnc3n2C)cnn1C` [Compound 241, 1-{1-[8-(1,5-dimethyl-1H-pyrazol-4-yl)-9-methyl-9H-purin-6-yl]piperidin-4-yl}-1,3-dihydro-2H-benzimidazol-2-one] was tested. Which IC50 did it give?
A: < 50 nM

Q: Which IC50 does the source give for `CN1C(=O)C2(CCN(c3ncnc4c3nc(C(=O)NCC3CC3)n4C)CC2)c2ccccc21` [Compound 141, N-(cyclopropylmethyl)-9-methyl-6-(1-methyl-2-oxo-1,2-dihydro-1′H-spiro[indole-3,4′-piperidin]-1′-yl)-9H-purine-8-carboxamide] here?
A: 500 to 1500 nM

Q: With `CCCCc1nnc(-c2nc3c(N4CCC(n5c(=O)[nH]c6ccccc65)CC4)ncnc3n2C)o1` [Compound 232, 1-(1-[8-(5-butyl-1,3,4-oxadiazol-2-yl)-9-methyl-9H-purin-6-yl]piperidin-4-yl)-1,3-dihydro-2H-benzimidazol-2-one] as the compound, how does the IC50 read?
A: < 50 nM

Reference: patent US20140058103A1, “Inhibitors of PI3K-Delta and Methods of Their Use and Manufacture” (Exelixis, Inc., priority 2010, published 2014)
